Reference: publication PMC3220680, “Microsecond Molecular Dynamics Simulations of Intrinsically Disordered Proteins Involved in the Oxidative Stress Response” (PLoS ONE, 2011)
Read-outs that look alike come from different tables or passages of the source.

What was measured:
Kelch domain of Keap1 = conditions: ITC; ref [79]; cited from earlier work
Keap1 = conditions: cited from earlier work; for competition with full-length Nrf2 for binding to Keap1: compared with 10-mer peptide (LDEETGEFLP), ref [79]
[1] = test system: Kelch domain of mouse Keap1 (residues 324–612); test: ITC binding of mouse peptides to Kelch domain of Keap1
Description: The Kelch domain (residues 324–612) of mouse Keap1 was expressed in Escherichia coli BL21 (DE3) grown in minimal M9 medium. The N-terminally His-tagged protein was purified by affinity chromatography using Ni Sepharose™ 6 Fast Flow beads (Amersham Biosciences). The tag was then cleaved by incubation with His-tagged tobacco etch virus (TEV) protease overnight at 25°C. The protein product was purified by passing the mixture through Ni Sepharose™ 6 Fast Flow beads (Amersham Biosciences).
ITC experiments were performed on a VP-ITC system (MicroCal) at 25°C. The Kelch domain was dialyzed against 50 mM phosphate buffer at pH 7, containing 100 mM NaCl and 1 mM DTT. Mouse ProTα (Ala-39 to Asp-54) and Neh2 (Leu-76 to Leu-84) peptides (GenScript) were also dissolved in the same buffer. All samples were filtered and degassed before the ITC experiments. […] Heat changes after saturation were used to account for the heat of dilution. The binding stoichiometries (n), enthalpy changes (ΔH), binding constants (Ka), Gibbs free energy changes (ΔG) and entropy changes (ΔS) were calculated using the titration data.
Supplementary file pone.0027371.s006.tif: Figure S4 Isothermal titration calorimetry (ITC) measurements. […] (Upper) The raw data of two ITC experiments each performed at 25°C. (Lower) The integrated heat changes, corrected for the heat of dilution, and the fitted curve assuming single-site binding. (TIF) Click here for additional data file.

[2] = test system: Nrf2-targeted cytoprotective genes; conditions: ref [49], [50]; cited from earlier work
Text: The Keap1-binding motif of ProTα (-NEENGE-) shares a similar sequence with that of the Neh2 ...

[3] = molecular target: Keap1 Kelch (Homo sapiens) (UniProt Q14145); test: ITC; conditions: cited from earlier work
[4] = molecular target: Keap1 Kelch (Mus musculus) (UniProt Q9Z2X8); conditions: cited from earlier work
[5] = molecular target: Keap1 Kelch (Mus musculus) (UniProt Q9Z2X8); test: ITC; conditions: cited from earlier work
[6] = molecular target: T1, Kelch domain (residues 324–612) of mouse Keap1 (mouse, UniProt Q9Z2X8 324-612); test: ITC; VP-ITC (MicroCal), 25°C; 5 µL aliquots of 0.5 mM peptide titrated into 1.4 mL of 0.05 mM Kelch in the cell; 50 mM phosphate pH 7, 100 mM NaCl, 1 mM DTT; single-site fit; conditions: both partners purified
T1 construct: Kelch domain of Kelch-like ECH-associated protein 1 (Keap1), mouse, residues 324-612; His tag cleaved with TEV protease; also called Kelch-like ECH-associated protein 1; source: Escherichia coli BL21 (DE3) in minimal M9 medium, purified (Ni Sepharose, TEV cleavage, second Ni Sepharose pass); not shown: His tag, N-terminal, cleaved

[7] = ITC, T = 298 K, pH 7, 50 mM phosphate, 100 mM NaCl, 1 mM DTT

T1 sequence (Q9Z2X8 324-612): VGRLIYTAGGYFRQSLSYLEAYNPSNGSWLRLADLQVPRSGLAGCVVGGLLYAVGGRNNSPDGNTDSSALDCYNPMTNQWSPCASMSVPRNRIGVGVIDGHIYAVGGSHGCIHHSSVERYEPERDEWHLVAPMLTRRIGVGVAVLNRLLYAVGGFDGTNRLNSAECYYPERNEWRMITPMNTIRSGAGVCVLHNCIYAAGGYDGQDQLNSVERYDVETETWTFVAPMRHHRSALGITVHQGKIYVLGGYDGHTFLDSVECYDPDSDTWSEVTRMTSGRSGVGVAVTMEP
Keap1 Kelch (Mus musculus), sequence (Q9Z2X8 309-624): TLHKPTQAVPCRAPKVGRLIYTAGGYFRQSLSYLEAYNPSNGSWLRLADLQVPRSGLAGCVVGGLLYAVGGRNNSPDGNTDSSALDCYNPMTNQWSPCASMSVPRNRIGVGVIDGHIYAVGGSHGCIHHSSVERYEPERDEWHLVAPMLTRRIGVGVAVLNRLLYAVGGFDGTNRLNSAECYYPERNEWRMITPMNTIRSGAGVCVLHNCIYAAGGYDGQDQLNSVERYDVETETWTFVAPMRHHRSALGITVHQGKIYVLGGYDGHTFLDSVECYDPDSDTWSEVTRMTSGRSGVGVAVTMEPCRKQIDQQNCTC
Keap1 Kelch (Homo sapiens), sequence (Q14145 321-609): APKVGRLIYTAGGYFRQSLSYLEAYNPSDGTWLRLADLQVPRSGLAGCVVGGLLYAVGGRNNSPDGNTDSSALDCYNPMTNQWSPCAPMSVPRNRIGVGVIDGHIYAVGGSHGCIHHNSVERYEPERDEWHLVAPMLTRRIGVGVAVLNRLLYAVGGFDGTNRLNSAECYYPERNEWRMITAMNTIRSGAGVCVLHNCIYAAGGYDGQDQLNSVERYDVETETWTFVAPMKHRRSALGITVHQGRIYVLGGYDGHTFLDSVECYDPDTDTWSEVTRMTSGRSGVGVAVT

AFFAQLQLDEETGEFL
Kd (Kelch domain of Keap1): ~20 nM | competition with full-length Nrf2 for binding to Keap1 (Keap1): could compete with full-length Nrf2 for binding to Keap1 much better than a 10-mer peptide (LDEETGEFLP)

AQNEENGEQEADNEVD [16-mer ProTα peptide, Mouse ProTα (Ala-39 to Asp-54) peptide (GenScript)]
relative binding to Keap1 ([1]; 16-mer ProTα vs Neh2 peptide with the same length, own ITC compared with ref [79]): interacts more weakly with Keap1 compared to the Neh2 peptide with the same length | Ka (binding constant) ([1]; ITC (VP-ITC), 25°C (T = 298 K), 50 mM phosphate pH 7, 100 mM NaCl, 1 mM DTT, 0.5 mM peptide titrated into 0.05 mM Kelch, single-site fit): 2.4 ± 0.1 10^6 M^−1 | TΔS (entropy change upon binding) [1, 7]: -10.20 kcal/mol | ΔG (Gibbs free energy change upon binding) [1, 7]: -8.70 ± 0.02 kcal/mol

LQLDEETGEFLPIQ
competition with full-length Nrf2 for binding to Keap1 (Keap1): could compete with full-length Nrf2 for binding to Keap1 much better than a 10-mer peptide (LDEETGEFLP)

MSDAAVDTSSEITTKDLKEKKEVVEEAENGRDAPANGNAQNEENGEQEADNEVDEEEEEGGEEEEEEEEGDGEEEDGDEDEEAEAPTGKRVAEDDEDDDVDTKKQKTEEDD [Full-length ProTα, Prothymosin alpha, full-length mouse ProTα protein, simulated]
Nrf2-targeted cytoprotective genes [2]: upregulation of Nrf2-targeted cytoprotective genes | competition with Nrf2 for binding to Keap1 (Keap1; ref [49], [50]): can compete with Nrf2 for binding to Keap1

Nrf2 16-mer peptide 16-mer ETGE peptide (from UniProt Q16236)
Kd [3]: 20 nM

Nrf2 Neh2 (DLG motif) Neh2 (from UniProt Q60795)
Kd [4]: 500 nM

Nrf2 Neh2 (ETGE motif) Neh2 (from UniProt Q60795)
Kd [5]: 8 nM

B1: 16-mer ProTα peptide (mouse), Ala-39 to Asp-54 (peptide)
peptide: AQNEENGEQEADNEVD
notes: Prothymosin alpha (ProTα), mouse, residues 39-54; also called Prothymosin alpha peptide; source: synthetic peptide; bought: GenScript
Ka [6]: 2.4e+06 ± 0.1 M⁻¹ | dH [6]: -18.9 ± 0.1 kcal/mol | stoichiometry N [6]: 1.03
